Laboratory results: US11253497B2, “Use of derivatives of polyunsaturated fatty acids as medicaments” (Lipopharma Therapeutics, S.L., priority 2009, dated 2022)

Assays:
[1] = system: apolipoprotein AI (apoA-I); assay: Levels of apoA-I in SHR rats (RT-PCR); assay type: in vivo, rat; conditions: 200 mg/kg day p.o., 30 days, before treatment 100%
Experimental: (§1) In a separate experimental series, it was studied the effect of D-PUFA molecules of the present invention on blood pressure of SHR rats. In these animals both, blood pressure and levels of apolipoprotein AI (apoA-I) were measured. For these experiments Spontaneously Hypertensive Rats (SHR) were treated for 30 days with vehicle (water control) or compounds of the invention (200 mg/kg day, p.o.). At the end of this period, the animals' blood pressure and serum levels of apoA-I were measured. […] For these experiments, non-invasive methods for determining blood pressure (cuff-tail method) and gene expression for apoA-I (RT-PCR) described in the literature (Terés et al., 2008) were used. The usefulness of the molecules of the present invention for the treatment of cardiovascular diseases is reinforced by its capacity for reducing the levels of serum cholesterol and triglycerides (see below).
(§2) The average values of SHR before treatment were 214 mmHg and 100% respectively.

[2] = system: brain cancer cell (glioma) U118; assay: Brain cancer (glioma) U118 cell growth; assay type: cell-based; conditions: 72 hours of incubation
Method in brief: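 Human cells in RPMI 1640 with 10% FBS at 37 °C, 5% CO2, exposed to D-PUFAs or PUFAs, then counted. glioma U118 cells run under the same conditions; values are means of three independent experiments.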

P19 cells = assay: NMDA-induced neuronal death in P19 cells; assay type: cell-based; conditions: NMDA alone 100% death, control without NMDA 0%; negative values = proliferation
TNF-α = assay: Production of TNF-α in serum of LPS-injected C57BL6/J mice; assay type: in vivo; conditions: LPS 20 μg i.p. (100%), 200 mg/kg p.o.
Source text: (§3) Cyclooxygenase (COX) is an enzyme that can bind to membranes, taking certain lipids from there and catalyze its conversion into molecules that can have inflammatory activity. The binding of this enzyme to membrane lipids is due in part to the membrane lipid structure. The increased activity of COX 1 and 2 isoforms has been associated with the etiopathology of a number of inflammatory diseases by […] arachidonic acid metabolism to produce pro-inflammatory lipid mediators. The D-PUFA compounds of the present invention produced a series of cellular signals that alter the metabolism of arachidonic acid and, as a result, they inhibit the activity and expression of COX in monocytes in culture (Table 14 and FIG. 5A). […] For this purpose, C57BL6/J mice were treated with the various derivatives (200 mg/kg, p.o.,) after inducing an inflammatory reaction in them by intraperitoneal injection of 20 μg of bacterial lipopolysaccharide (LPS).

[3] = Serum cholesterol, triglycerides and glucose in SHR rats (colorimetric); assay type: in vivo, rat; conditions: 200 mg/kg daily p.o., 28 days, untreated rats 100%
Experimental: In a separate experimental series, SHR rats were treated with various compounds of the present invention (200 mg/kg daily, 28 days, p.o.) and the levels of cholesterol, triglycerides and glucose in serum were measured by colorimetric methods. It was observed that these compounds induce significant (and in many cases marked) reductions in the levels of these metabolites (Table 16).
Values are expressed as percent, and in untreated (control) rats values were always considered as 100%.

α-synuclein = assay: Expression of α-synuclein in neuronal cultures (cells P19); assay type: cell-based; conditions: untreated cells 100%
[4] = system: breast cancer cells MDA-MB-231; assay: Growth of breast cancer cells MDA-MB-231; assay type: cell-based; conditions: 72 hours of incubation
Method in brief: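 Human cancer cells in RPMI 1640 with 10% FBS at 37 °C, 5% CO2, exposed to D-PUFAs or PUFAs, then counted. Breast MDA-MB-231 cells run under the same conditions; values are means of three independent experiments.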

COX-2 = assay: Expression of COX-2 in LPS-stimulated monocytes in culture; assay type: cell-based, human; conditions: positive control with LPS 100%
Source text: FIG. 5A also presents a drawing showing the COX-2/COX-1 relationship as % of control (Y axis) for the following compounds (X-axis): OOA (2-hydroxy-oleic acid), OLA (182A1), OALA (183A1), OGLA (183A2), OARA (204A1), OEPA (205A1), ODHA (226A1). […] The reduction of this factor is directly related to the anti-inflammatory medication. The compounds are the same as in the left pane.
as §3
Inhibition of COX-2 expression in monocytes. Percentages of inhibition (compared to the positive control in the presence of LPS, 100%) of COX-2 protein levels (expression) by the various fatty acid derivatives.

[5] = system: Spontaneously Hypertensive Rats (SHR); assay: Blood pressure of SHR rats (cuff-tail method); assay type: in vivo, rat; conditions: 200 mg/kg day p.o., 30 days, before treatment 214 mmHg
Experimental: as §1, §2

lung cancer cells A549 = assay: Growth of lung cancer cells A549 (IC50); assay type: cell-based, human; conditions: 72 hours of incubation
Method in brief: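 Human A549 lung cancer cells in RPMI 1640 with 10% FBS at 37 °C, 5% CO2, exposed to D-PUFAs or PUFAs, then counted. values are means of three independent experiments.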

Row | SMILES | Levels of apoA-I [1] [%] | IC50 [2] [µM] | Neuronal death (P19 cells) after treatment with NMDA (P19 cells) [%] | Production of TNF-α in serum (TNF-α) [%] | Cholesterol in serum (top number) [3] [%] | Glucose in serum (bottom number) [3] [%] | Triglycerides in serum (central number) [3] [%] | Expression of α-synuclein (α-synuclein) [%] | IC50 [4] [µM] | COX-2 protein levels (expression), percentages of inhibition compared to positive control (COX-2) [%] | Blood pressure [5] [mm Hg] | IC50 (lung cancer cells A549) [µM]
1 | CCC=CCC=CCC=CCCCCCCC(C)C(=O)[O-].[Na+] (stereo not drawn) [183L1] | 125 | 231 | −21 | 86 | 82 | 85 | 77 | 76 | 306 | 65 | 205 | 285
2 | CCCCCC=CCC=CCC=CCCCC(C)C(=O)[O-].[Na+] (stereo not drawn) [183L2] | 268 | 460 | −29 | 91 | 83 | 92 | 79 | 73 | 173 | 48 | 194 | 283
3 | CCC=CCC=CCC=CCCCCCCC(OC=O)C(=O)OCC (stereo not drawn) [183V1] | 152 | 274 | −9 | 84 | 75 | 79 | 70 | 87 | 326 | 79 | 199 | 320
4 | CCCCCC=CCC=CCC=CCCCC(OC=O)C(=O)OCC (stereo not drawn) [183V2] | 282 | 402 | −18 | 87 | 84 | 88 | 92 | 89 | 241 | 68 | 198 | 291
5 | CCCCCC=CCC=CCC=CCC=CCCC(O)C(=O)OP(=O)(OCC)OCC (stereo not drawn) [204F1] | 163 | 275 | −46 | 46 | 76 | 84 | 81 | 52 | 326 | 41 | 199 | 392
6 | CCCCCC=CCC=CCC=CCC=CCCC(C)C(=O)[O-].[Na+] (stereo not drawn) [204L1] | 188 | 247 | −27 | 49 | 83 | 91 | 82 | 69 | 332 | 47 | 197 | 326
7 | CCCCCC=CCC=CCC=CCC=CCCC(OC=O)C(=O)OCC (stereo not drawn) [204V1] | 161 | 345 | −11 | 42 | 84 | 87 | 81 | 82 | 352 | 43 | 198 | 326
8 | CCC=CCC=CCC=CCC=CCC=CCCC(O)C(=O)OP(=O)(OCC)OCC (stereo not drawn) [205F1] | 319 | 498 | −44 | 80 | 71 | 82 | 83 | 57 | 275 | 47 | 195 | 338
9 | CCC=CCC=CCC=CCC=CCC=CCCC(C)C(=O)[O-].[Na+] (stereo not drawn) [205L1] | 376 | 435 | −35 | 76 | 79 | 85 | 78 | 67 | 253 | 53 | 198 | 362
10 | CCC=CCC=CCC=CCC=CCC=CCCC(OC=O)C(=O)OCC (stereo not drawn) [205V1] | 315 | 510 | −27 | 84 | 85 | 84 | 79 | 81 | 298 | 76 | 191 | 325
